Values quoted from earlier work as cited in US20240249808A1, “Physiologically Based Toxicokinetic (PBTK) Modeling for Implant Toxicology” (Cyprus University of Technology, priority 2021, published 2024).

Conditions: parenteral (non-oral) exposure; prolonged or permanent patient exposure; adverse systemic effects except hypersensitivity; CDRH recommended

In the case of [Ni] [nickel], the “Tolerable Intake (TI) value” is listed as 0.5 µg/kg/day.
